Test results as given in patent US9271978B2 (Zenith Epigenetics Corp., priority 2012, dated 2016).

Legend:
hIL-6 mRNA = assay: Inhibition of hIL-6 mRNA transcription in U937 cells; type: cell-based, human; design: key: Active: Compounds with an IC50 value less than 30 μM were deemed to be active.; Not Active: Compounds with an IC50 value less than 30 μM were deemed to be active; details: LPS stimulation, active = IC50 <30 μM
Summary of the method: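 U937 cells differentiated 3 days with 60 ng/mL PMA, pretreated 1 h with compound, then stimulated with 1 ug/mL E. coli LPS for 3 h at 37° C. hIL-6 mRNA quantified by one-step qRT-PCR, Ct normalized to internal control, expressed as fold induction relative to control.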

c-myc = assay: Inhibition of c-myc expression in MV4-11 cells (mRNA, real-time PCR); type: cell-based; design: key: Active: Compounds with an IC50 value less than 30 μM were deemed to be active.; Not Active: Compounds with an IC50 value less than 30 μM were deemed to be active; details: Human AML MV4-11 cells, 3 h incubation
Summary of the method: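 MV4-11 cells (2.5×10^4) treated with compound or 0.1% DMSO for 3 h at 37 °C. c-myc mRNA measured by RT real-time PCR duplexed with cyclophilin. IC50 from dose–response curve.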

[1] = biological target: T1, Brd4 bromodomain 1 (BRD4(1)) (Homo sapiens, UniProt O60885); assay: Inhibition of tetra-acetylated histone H4 binding to Brd4 bromodomain 1 (TR-FRET); design: key: Active: Compounds with an IC50 value less than 30 μM were deemed to be active.; Not Active: Compounds with an IC50 value less than 30 μM were deemed to be active; details: tetra-acetylated histone H4 peptide, active = IC50 <30 μM
T1 construct: Illustrative results with the first bromodomain of Brd4; made in house; host or cells: E. coli BL21 (DE3)
Summary of the method: (§1)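 N-terminally His-tagged bromodomains (200 nM), expressed in E. coli, were incubated with biotinylated tetra-acetylated histone H4 peptide (25-50 nM), Eu-cryptate streptavidin and XL665 anti-His antibody in HEPES pH 7.4 buffer with KF, 0.2% DMSO, 2 h at room temperature. Inhibition read as decreased 665/620 nm TR-FRET; IC50 from dose-response curves.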

[2] = biological target: T2, second bromodomain of Brd2 (BRD2(2)) (Homo sapiens, UniProt P25440); assay: Inhibition of tetra-acetylated histone H4 binding to Brd2 bromodomain 2 (TR-FRET); design: key: Active: Compounds with an IC50 value less than 30 μM were deemed to be active.; Not Active: Compounds with an IC50 value less than 30 μM were deemed to be active; details: tetra-acetylated histone H4 peptide, active = IC50 <30 μM
T2 construct: made in house; host or cells: E. coli BL21 (DE3)
Summary of the method: as §1

[3] = system: human AML MV-4-11 (CRL-9591) cells; assay: Inhibition of cell proliferation in MV4-11 cells; type: cell-based; design: key: Active: Compounds with an IC50 value less than 30 μM were deemed to be active.; Not Active: Compounds with an IC50 value less than 30 μM were deemed to be active; details: human AML MV-4-11 cells, 72 h; active = IC50 <30 μM
Summary of the method: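 Exponentially growing MV-4-11 cells (5×10^4/well) were treated immediately with two-fold dilutions of compound from 30 μM to 0.2 μM, in triplicate, for 72 h at 37° C, 5% CO2. Viability was measured by MTS absorbance at 490 nm after 3–4 h. Proliferation relative to DMSO after blank correction gave IC50.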

ApoA-I mRNA = assay: Up-regulation of hApoA-1 mRNA transcription in Huh7 cells; type: cell-based, human; design: key: Active: Compounds with an EC170 value less than 30 μM were deemed to be active; details: 48 h treatment, ApoA-I mRNA by real-time PCR, Active = EC170 less than 30 μM
Summary of the method: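 Huh7 cells treated with compound for 48 h. ApoA-I mRNA was then quantified in captured mRNA by one-step real-time RT-PCR. Fold induction calculated from Ct values relative to the matching DMSO control; EC170 is the concentration for 170% of control expression.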

T2 sequence (P25440 344-453 limits assumed): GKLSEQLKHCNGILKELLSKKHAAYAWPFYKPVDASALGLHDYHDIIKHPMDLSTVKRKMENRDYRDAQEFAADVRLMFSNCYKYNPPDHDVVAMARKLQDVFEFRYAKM

Compound	IL-6 activity (IC50 <30 μM) (hIL-6 mRNA)	c-myc activity (IC50 <30 μM) (c-myc)	FRET activity (IC50 <30 μM) BRD4(1) [1]	FRET activity (IC50 <30 μM) BRD2(2) [2]	Cell Proliferation activity (IC50 <30 μM) [3]	ApoA-1 activity (EC170 <30 μM) (ApoA-I mRNA)
Cc1noc(C)c1-c1ccc(=O)n(Cc2ccc(C(N)=O)cc2)c1 [Example 13, 4-((5-(3,5-Dimethylisoxazol-4-yl)-2-oxopyridin-1(2H)-yl)methyl)benzamide]	Active	Not Active	Active	Active	Not Active	Active
COc1cc(-c2ccc(=O)n(Cc3ccc(NC(C)=O)cc3)n2)cc(OC)c1OC [Example 82, N-(4-((6-Oxo-3-(3,4,5-trimethoxyphenyl)pyridazin-1(6H)-yl)methyl)phenyl)acetamide]	Active	Not Active	Active	Active	Not Active	Active
Cc1noc(C)c1-c1cc(C)c(=O)n(Cc2ccccc2)c1 [Example 66, 1-Benzyl-5-(3,5-dimethylisoxazol-4-yl)-3-methylpyridin-2(1H)-one]	Active	Active	Active	Active	Active	Active
COc1ccc(Nc2ccc(=O)n(Cc3ccccc3)n2)nc1OC [Example 99, 2-Benzyl-6-((5,6-dimethoxypyridin-2-yl)amino)pyridazin-3(2H)-one]	Active	Active	Active	Active	Not Active	Active
Cc1noc(C)c1-c1ccc(=O)n(Cc2cccc3cccnc23)c1 [Example 47, 5-(3,5-Dimethylisoxazol-4-yl)-1-(quinolin-8-ylmethyl)pyridin-2(1H)-one]	Active	Active	Active	Active	Active	Active
Cc1noc(C)c1-c1ccc(=O)n(C(C)c2cccc(F)c2)c1 (stereo not shown) [Example 104, 5-(3,5-Dimethylisoxazol-4-yl)-1-(1-(3-fluorophenyl)ethyl)pyridin-2(1H)-one]	Active	Active	Active	Active	Active	Active
Cc1noc(C)c1-c1cc(N)c(=O)n(Cc2ccc(Cl)c(Cl)c2)c1 [Example 213, 3-amino-1-(3,4-dichlorobenzyl)-5-(3,5-dimethylisoxazol-4-yl)pyridin-2(1H)-one]	Active	Active	Active	–	Active	Active
Cc1noc(C)c1-c1cc(N)c(=O)n(Cc2ccc(F)c(F)c2)c1 [Example 211, 3-amino-1-(3,4-difluorobenzyl)-5-(3,5-dimethylisoxazol-4-yl)pyridin-2(1H)-one]	Active	Active	Active	–	Active	Active
Cc1noc(C)c1-c1cc(Nc2ccccn2)c(=O)n(Cc2ccccc2)c1 [Example 193, 1-benzyl-5-(3,5-dimethylisoxazol-4-yl)-3-(pyridin-2-ylamino)pyridin-2(1H)-one]	Active	Not Active	Not Active	–	Active	Active

Second part, led by results:

IL-6 activity (IC50 <30 μM) (hIL-6 mRNA)	c-myc activity (IC50 <30 μM) (c-myc)	FRET activity (IC50 <30 μM) BRD4(1) [1]	FRET activity (IC50 <30 μM) BRD2(2) [2]	Cell Proliferation activity (IC50 <30 μM) [3]	Compound	ApoA-1 activity (EC170 <30 μM) (ApoA-I mRNA)
Active	Active	Active	Active	Active	Cc1noc(C)c1-c1ccc(=O)n(Cc2cccc(C(F)F)c2)c1 [Example 50, 1-(3-(Difluoromethyl)benzyl)-5-(3,5-dimethylisoxazol-4-yl)pyridin-2(1H)-one]	Active
Active	Active	Active	Active	Active	Cc1noc(C)c1-c1ccc(=O)n(Cc2cccc3[nH]ccc23)c1 [Example 149, 1-((1H-Indol-4-yl)methyl)-5-(3,5-dimethylisoxazol-4-yl)pyridin-2(1H)-one]	Active
Active	Active	Active	Active	Active	Cc1noc(C)c1-c1ccc(=O)n(C(C)c2ccccc2)c1 (stereo not shown) [Example 125, 5-(3,5-Dimethylisoxazol-4-yl)-1-(1-phenylethyl)pyridin-2(1H)-one]	Active
Active	Active	Active	–	Active	Cc1noc(C)c1-c1cc(N)c(=O)n(Cc2ccc(C#N)cc2)c1 [Example 216, 4-((3-amino-5-(3,5-dimethylisoxazol-4-yl)-2-oxopyridin-1(2H)-yl)methyl)benzonitrile]	Active
Active	Active	Active	–	Active	Cc1noc(C)c1-c1cc(C(N)=O)c(=O)n(Cc2ccccc2)c1 [Example 230, 1-Benzyl-5-(3,5-dimethylisoxazol-4-yl)-2-oxo-1,2-dihydropyridine-3-carboxamide]	Active
Active	Active	Active	–	Active	CCNc1cc(-c2c(C)noc2C)cn(Cc2ccccc2)c1=O [Example 186, 1-benzyl-5-(3,5-dimethylisoxazol-4-yl)-3-(ethylamino)pyridin-2(1H)-one]	Active
Not Active	Active	Active	–	Not Active	Cc1noc(C)c1-c1cc(Cl)c(=O)n(Cc2ccc(F)cc2)c1 [Example 181, 3-chloro-5-(3,5-dimethylisoxazol-4-yl)-1-(4-fluorobenzyl)pyridin-2(1H)-one]	Active
Active	Active	Active	–	Active	Cc1noc(C)c1-c1cc(N)c(=O)n(Cc2ccc(F)c(Cl)c2)c1 [Example 212, 3-amino-1-(3-chloro-4-fluorobenzyl)-5-(3,5-dimethylisoxazol-4-yl)pyridin-2(1H)-one]	Active
